Source: the NIST ThermoML archive (doi:10.1021/je060271a)

Conditions: 303.15 K, Liquid, Vibrating tube method

CCCCC(=O)OCC(COC(=O)CCCC)(COC(=O)CCCC)COC(=O)CCCC [pentaerythritol tetrapentanoate]
Conditions | mass density [kg/m3]
751.89 kPa | 1011.3
752.93 kPa | 1011.3
753.46 kPa | 1011.4
754.85 kPa | 1011.5
756.07 kPa | 1011.3
757.1 kPa | 1011.2
758.15 kPa | 1011.2
759.55 kPa | 1011.4
760.59 kPa | 1011.3
761.46 kPa | 1011.3
762.5 kPa | 1011.4
763.72 kPa | 1011.3
764.76 kPa | 1011.3
765.97 kPa | 1011.4
767.19 kPa | 1011.3
768.22 kPa | 1011.4
769.27 kPa | 1011.3
770.14 kPa | 1011.4
771.18 kPa | 1011.4
772.57 kPa | 1011.4
773.96 kPa | 1011.4
775 kPa | 1011.3
776.04 kPa | 1011.3
777.44 kPa | 1011.4
778.31 kPa | 1011.3
779.51 kPa | 1011.4
781.59 kPa | 1011.4
782.99 kPa | 1011.3
784.03 kPa | 1011.3
785.06 kPa | 1011.2
786.46 kPa | 1011.3
787.68 kPa | 1011.4
788.72 kPa | 1011.4
790.1 kPa | 1011.3
793.58 kPa | 1011.4
796.19 kPa | 1011.4
797.22 kPa | 1011.4
798.28 kPa | 1011.4
799.66 kPa | 1011.4
800.87 kPa | 1011.4
802.26 kPa | 1011.3
803.13 kPa | 1011.3
804.36 kPa | 1011.3
806.1 kPa | 1011.3
807.3 kPa | 1011.2
808.17 kPa | 1011.4
809.57 kPa | 1011.4
810.78 kPa | 1011.4
811.81 kPa | 1011.4
813.39 kPa | 1011.4
814.44 kPa | 1011.4
815.81 kPa | 1011.4
816.86 kPa | 1011.3
818.08 kPa | 1011.4
819.64 kPa | 1011.3
820.86 kPa | 1011.4
822.25 kPa | 1011.3
823.47 kPa | 1011.4
824.68 kPa | 1011.4
826.25 kPa | 1011.3
827.28 kPa | 1011.4
828.32 kPa | 1011.4
830.07 kPa | 1011.4
831.46 kPa | 1011.3
832.68 kPa | 1011.3
834.23 kPa | 1011.4
835.46 kPa | 1011.3
836.32 kPa | 1011.3
837.71 kPa | 1011.3
839.27 kPa | 1011.4
840.67 kPa | 1011.4
841.53 kPa | 1011.4
843.1 kPa | 1011.5
844.31 kPa | 1011.4
846.05 kPa | 1011.4
847.44 kPa | 1011.4
848.82 kPa | 1011.4
850.22 kPa | 1011.5
851.43 kPa | 1011.4
852.99 kPa | 1011.3
854.55 kPa | 1011.4
855.43 kPa | 1011.3
856.64 kPa | 1011.4
858.56 kPa | 1011.4
859.94 kPa | 1011.3
861.33 kPa | 1011.4
862.89 kPa | 1011.4
864.28 kPa | 1011.4
865.5 kPa | 1011.5
866.89 kPa | 1011.3
868.64 kPa | 1011.3
869.85 kPa | 1011.3
871.4 kPa | 1011.4
872.8 kPa | 1011.3
874.36 kPa | 1011.4
875.58 kPa | 1011.4
877.31 kPa | 1011.4
878.7 kPa | 1011.3
880.09 kPa | 1011.4
881.48 kPa | 1011.3
882.37 kPa | 1011.5
884.28 kPa | 1011.4
885.67 kPa | 1011.4
886.88 kPa | 1011.4
888.45 kPa | 1011.5
890 kPa | 1011.4
891.23 kPa | 1011.4
892.79 kPa | 1011.4
894.35 kPa | 1011.5
895.75 kPa | 1011.3
897.31 kPa | 1011.5
899.39 kPa | 1011.5
900.97 kPa | 1011.4
902.17 kPa | 1011.4
903.4 kPa | 1011.4
904.79 kPa | 1011.4
906.87 kPa | 1011.4
908.62 kPa | 1011.4
910 kPa | 1011.4
911.39 kPa | 1011.4
913.13 kPa | 1011.4
914.69 kPa | 1011.5
916.25 kPa | 1011.5
917.82 kPa | 1011.4
919.55 kPa | 1011.4
921.29 kPa | 1011.4
922.68 kPa | 1011.4
924.26 kPa | 1011.5
925.81 kPa | 1011.4
927.54 kPa | 1011.6
929.11 kPa | 1011.4
931.03 kPa | 1011.4
932.76 kPa | 1011.6
934.31 kPa | 1011.4
936.05 kPa | 1011.5
937.62 kPa | 1011.4
939.53 kPa | 1011.5
941.27 kPa | 1011.5
943 kPa | 1011.4
944.4 kPa | 1011.5
946.13 kPa | 1011.4
947.18 kPa | 1011.5
949.26 kPa | 1011.4
950.82 kPa | 1011.4
952.73 kPa | 1011.5
954.48 kPa | 1011.5
956.38 kPa | 1011.4
958.11 kPa | 1011.4
960.21 kPa | 1011.4
961.77 kPa | 1011.5
963.32 kPa | 1011.5
965.24 kPa | 1011.4
967.49 kPa | 1011.5
969.05 kPa | 1011.5
970.44 kPa | 1011.4
972.01 kPa | 1011.5
974.27 kPa | 1011.4
976.34 kPa | 1011.4
977.92 kPa | 1011.4
979.13 kPa | 1011.6
981.39 kPa | 1011.5
983.3 kPa | 1011.5
985.21 kPa | 1011.5
987.46 kPa | 1011.4
989.21 kPa | 1011.5
990.77 kPa | 1011.5
992.34 kPa | 1011.5
994.41 kPa | 1011.4
996.16 kPa | 1011.4
998.06 kPa | 1011.5
1000.1 kPa | 1011.3
1002.1 kPa | 1011.3
1004.3 kPa | 1011.4
1005.9 kPa | 1011.4
1007.8 kPa | 1011.4
1009.4 kPa | 1011.5
1011.3 kPa | 1011.5
1014 kPa | 1011.5
1015.8 kPa | 1011.5
1017.3 kPa | 1011.5
1019.2 kPa | 1011.5
1021.5 kPa | 1011.4
1023.4 kPa | 1011.5
1025.3 kPa | 1011.5
1027.4 kPa | 1011.6
1029.5 kPa | 1011.5
1031.2 kPa | 1011.6
1033.5 kPa | 1011.5
1035.6 kPa | 1011.5
1036.8 kPa | 1011.4
1039.1 kPa | 1011.5
1041.1 kPa | 1011.6
1042.9 kPa | 1011.6
1045 kPa | 1011.5
1047.6 kPa | 1011.6
1049.5 kPa | 1011.5
1051.4 kPa | 1011.4
1053.7 kPa | 1011.5
1055.7 kPa | 1011.5
1058 kPa | 1011.5
1059.7 kPa | 1011.5
1062.2 kPa | 1011.5
1064.4 kPa | 1011.5
1066.7 kPa | 1011.6
1068.7 kPa | 1011.5
1071 kPa | 1011.5
1072.9 kPa | 1011.6
1075.2 kPa | 1011.5
1077.2 kPa | 1011.5
1078.8 kPa | 1011.5
1081.6 kPa | 1011.5
1083.8 kPa | 1011.5
1085.9 kPa | 1011.5
1088 kPa | 1011.6
1090.6 kPa | 1011.6
1092.7 kPa | 1011.6
1095 kPa | 1011.5
1097.4 kPa | 1011.5
1099.5 kPa | 1011.5
1101.7 kPa | 1011.5
1104 kPa | 1011.6
1106.4 kPa | 1011.5
1108.7 kPa | 1011.5
1111.1 kPa | 1011.5
1113.4 kPa | 1011.5
1116 kPa | 1011.5
1117.9 kPa | 1011.5
1120.7 kPa | 1011.6
1122.8 kPa | 1011.6
1124.8 kPa | 1011.5
1127.3 kPa | 1011.5
1129.7 kPa | 1011.5
1132.3 kPa | 1011.6
1134.6 kPa | 1011.7
1137.5 kPa | 1011.5
1139.8 kPa | 1011.6
1141.8 kPa | 1011.5
1144.1 kPa | 1011.7
1147.1 kPa | 1011.4
1149.3 kPa | 1011.6
1151.6 kPa | 1011.6
1153.8 kPa | 1011.5
1156.6 kPa | 1011.6
1159 kPa | 1011.6
1162.2 kPa | 1011.6
1164.3 kPa | 1011.8
1166.9 kPa | 1011.6
1169.3 kPa | 1011.6
1171.7 kPa | 1011.7
1174.3 kPa | 1011.6
1176.6 kPa | 1011.5
1179.2 kPa | 1011.6
1182 kPa | 1011.6
1184.7 kPa | 1011.6
1187.2 kPa | 1011.7
1190.1 kPa | 1011.7
1192.6 kPa | 1011.7
1195.2 kPa | 1011.6
1198.1 kPa | 1011.6
1200.7 kPa | 1011.6
1203.2 kPa | 1011.6
1206.3 kPa | 1011.6
1208.5 kPa | 1011.6
1211.3 kPa | 1011.6
1213.9 kPa | 1011.6
1216.9 kPa | 1011.7
1219.5 kPa | 1011.7
1222.1 kPa | 1011.6
1224.7 kPa | 1011.7
1227.8 kPa | 1011.7
1230.6 kPa | 1011.7
1233.4 kPa | 1011.6
1236.1 kPa | 1011.6
1239.1 kPa | 1011.7
1241.9 kPa | 1011.6
1244.7 kPa | 1011.6
1248 kPa | 1011.6
1250.6 kPa | 1011.7
1253.5 kPa | 1011.6
1256.1 kPa | 1011.6
1259.1 kPa | 1011.6
1262 kPa | 1011.6
1265 kPa | 1011.7
1268.1 kPa | 1011.6
1271 kPa | 1011.6
1274 kPa | 1011.7
1277 kPa | 1011.6
1279.4 kPa | 1011.6
1283 kPa | 1011.7
1286 kPa | 1011.7
1289.1 kPa | 1011.6
1292.6 kPa | 1011.7
1296 kPa | 1011.7
1299.7 kPa | 1011.6
1302.8 kPa | 1011.7
1305.6 kPa | 1011.7
1308.5 kPa | 1011.6
1312.2 kPa | 1011.7
1315 kPa | 1011.8
1318.1 kPa | 1011.7
1321.4 kPa | 1011.7
1324.3 kPa | 1011.7
1327.8 kPa | 1011.6
1331.1 kPa | 1011.7
1334.2 kPa | 1011.8
1337.4 kPa | 1011.6
1340.5 kPa | 1011.6
1343.8 kPa | 1011.7
1347.3 kPa | 1011.8
1350.2 kPa | 1011.7
1354.2 kPa | 1011.7
1357.2 kPa | 1011.6
1360.5 kPa | 1011.7
1363.6 kPa | 1011.7
1367.4 kPa | 1011.7
1371.1 kPa | 1011.7
1373.8 kPa | 1011.7
1377.5 kPa | 1011.7
1381.3 kPa | 1011.8
1384.2 kPa | 1011.7
